According to patent publication US20190040025A1, “INDOLEAMINE 2,3-DIOXYGENASE INHIBITOR, PREPARATION METHOD THEREFOR, AND APPLICATION” (Jiangsu Hansoh Pharmaceutical Group Co., Ltd., priority 2016, published 2019):

Columns and labels:
[1] = tested on: mouse pancreatic cancer cell line PAN02; test: Anti-tumor effect in PAN02 tumor-bearing mouse model; type: in vivo, mouse (C57/BL6); details: PAN02 tumor-bearing mice, 50 mg/kg intragastric twice a day
Excerpt: The invention used the PAN02 tumor-bearing mouse model to test the anti-tumor effect of the example compounds. The PAN02 tumor-bearing mouse model was the mouse pancreatic cancer cell line PAN02 purchased from Guangzhou Ginnio Biological Technology Co., Ltd., and the culture medium used was DMEM containing 10% fetal bovine serum. The mouse strain used for tumor-bearing was C57/BL6 purchased from Shanghai Slac Laboratory Animal Co., Ltd. At the time of implanting, the PAN02 cells in the logarithmic growth phase were collected, and mixed with the BDMatrigel matrix gel that reduced the growth factor to 50 million cells/ml. Each mouse was implanted subcutaneously with 100 μL of 5 million cells. When the tumor grew to about 100 cubic millimeters, animals were randomly divided into groups with 8 animals per group. Drug administration was started (D0).
Mode of administration: intragastrical administration, twice a day.
Formulation prescription: 3% two methyl acetamide and 20% hydroxypropyl-β-cyclodextrin. • Administration period and tumor measurement: The administration period was 13 days. The tumor volume was measured, the mice were weighed, and the data were recorded, 3 times a week. The calculation formula of tumor volume (V) is: V=½a×b2, where a and b represent length and width respectively. The calculation formula of T/C is: T/C (%)=100×ΔT/ΔC. Tumor inhibition rate (%)=1−T/C (%). • Experimental results: the anti-tumor effect of the compound of Example 15 in PAN02 tumor-bearing mouse model is shown in the following table.

[2] = biological target: T1, indoleamine 2,3-dioxygenase (IDO) in HeLa cells (Homo sapiens, UniProt P14902); test: Cell model test for IDO activity inhibition (interferon γ induced HeLa cells); type: cell-based; details: interferon γ 50 ng/mL, 24 hours, read-out: Cytological Test IC50
T1 construct: Interferon γ induced the expression of IDO in HeLa cells; host or cells: HeLa cells induced with interferon γ
T1 sequence (P14902 whole entry): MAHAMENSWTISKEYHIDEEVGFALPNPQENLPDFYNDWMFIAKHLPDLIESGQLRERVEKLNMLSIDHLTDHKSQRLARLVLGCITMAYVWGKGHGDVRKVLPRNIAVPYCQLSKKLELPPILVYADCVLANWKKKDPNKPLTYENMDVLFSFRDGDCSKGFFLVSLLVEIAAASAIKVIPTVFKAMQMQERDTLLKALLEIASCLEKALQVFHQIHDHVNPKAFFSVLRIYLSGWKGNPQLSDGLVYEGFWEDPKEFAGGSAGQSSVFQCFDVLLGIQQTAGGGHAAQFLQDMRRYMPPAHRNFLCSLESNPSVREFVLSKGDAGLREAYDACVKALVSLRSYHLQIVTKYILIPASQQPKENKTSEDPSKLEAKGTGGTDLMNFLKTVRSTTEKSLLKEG
Description: Interferon γ induced the expression of IDO in HeLa cells. This model was used to test the inhibitory activity of compounds on indoleamine 2,3-dioxygenase (IDO). The culture medium of HeLa cells (ATCC) was phenol red-free RPMI-1640 containing 100 μM L-tryptophan. The stock solution of the test compound was prepared to 10 mM with dimethyl sulfoxide, and diluted with dimethyl sulfoxide to the highest concentration of the test during the experiment, then diluted in three-fold gradient, and generally diluted to 8 to 10 concentration points. Duplicate wells were set for each concentration point. The final concentration of DMSO was 0.5%, and internal reference compound was included in each experiment.
The procedure of the experiment was as follows: 20,000 HeLa cells (ATCC) per well were added on a 96-well culture plate and incubated overnight. After 24 hours, interferon γ (final concentration of 50 ng/mL) and different concentrations of the test compound and the internal reference compound were added to the incubated cells. After 24 hours, 140 μL of the supernatant/well was transferred to a new 96-well plate, and 10 μL of 6.1 N trichloroacetic acid was added to each well. The plate was incubated for 30 minutes at 50° C. to hydrolyze N-formyl-kynurenine to kynurenine. The reaction mixture was centrifuged at 2500 rpm for 10 minutes to remove the precipitate, and the supernatant (100 μL) was transferred to another new 96-well plate. 100 μL of 2% (W/V) p-(dimethylamino)benzaldehyde (p-DMBA)/glacial acetic acid solution was added to each well. The absorbance at 490 nm was read on a BioTek Synergy H1 microplate reader […].
The original data of the absorbance at 490 nm read on a microplate reader were analyzed. The inhibition of IDO enzyme activity was calculated at different concentrations of the test compound. The half-inhibitory concentration IC50 value of the compound was obtained by non-linear fitting analysis of inhibition percentage data by GraphPad Prism software.

IC50 [2]: 10 nM
Structure (SMILES): CS(=O)(CCNc1nonc1/C(=N/O)Nc1ccc(F)c(Br)c1)=NS(=O)(=O)C1CC1 (centres unmarked) [Example 15, (Z)—N-(3-bromo-4-fluorophenyl)-4-((2-(N-(cyclopropylsulfonyl)-S-methylsulfonimidoyl)ethyl)amino)-N′-hydroxy-1,2,5-oxadiazole-3-carboximidamide]
Average tumor volume (mm^3 ± SEM) D0 ([1]; D0 (start of administration)): 105.0 ± 3.4 mm^3 | Average tumor volume (mm^3 ± SEM) D12 ([1]; D12): 163.3 ± 11.0 mm^3 | T/C (%) D12 ([1]; D12): 25.2% | Tumor inhibition rate (%) D12 ([1]; D12, 50 mg/kg): 74.8%
